# Marks after values point to notes of the source that are not given here.
# Tested on: human SMN2-gene
# Test: Full-length SMN2 transcript qPCR in tissues of adult SMA mice after intravenous peptide-PMO conjugate
# Assay type: in vivo
# Conditions: for full-length SMN2 transcripts, mean expression level, Brainstem / full-length SMN2 transcripts, mean expression level, Cerebellum / full-length SMN2 transcripts, mean expression level, Cortex / full-length SMN2 transcripts, mean expression level, Liver / full-length SMN2 transcripts, mean expression level, Gastroc / full-length SMN2 transcripts, mean expression level, Quad / full-length SMN2 transcripts, mean expression level, TA / full-length SMN2 transcripts, mean expression level, Cervical / full-length SMN2 transcripts, mean expression level, Lumbar / full-length SMN2 transcripts, mean expression level, Thoracic: adult SMA mice, 2x15 mg/kg IV approx. 48 hours apart, tissue 7 days post final administration, normalised to saline treated controls; for full-length SMN2 transcripts, mean expression level, Brainstem / full-length SMN2 transcripts, mean expression level, Cerebellum / full-length SMN2 transcripts, mean expression level, Cortex: Central Nervous System; for full-length SMN2 transcripts, mean expression level, Liver: Off Target; for full-length SMN2 transcripts, mean expression level, Gastroc: Skeletal Muscle (gastrocnemius); for full-length SMN2 transcripts, mean expression level, Quad: Skeletal Muscle (quadriceps); for full-length SMN2 transcripts, mean expression level, TA: Skeletal Muscle (tibialis anterior); for full-length SMN2 transcripts, mean expression level, Cervical / full-length SMN2 transcripts, mean expression level, Lumbar / full-length SMN2 transcripts, mean expression level, Thoracic: spinal cord
# Excerpt: Smn1tm1Hung/wt; […]; […] Tissues were harvested one week post administration. […] Statistical significance determined by Student'[…]≤0.00005. […] ID NO.151), Exons 7-8 Rev: [NT] ID NO.152). […] [NT] ID NO.154). […] PolJ Forward: [NT] ID NO.155); PolJ Reverse: [NT]
Substance,"full-length SMN2 transcripts, mean expression level, Brainstem","full-length SMN2 transcripts, mean expression level, Cerebellum","full-length SMN2 transcripts, mean expression level, Cortex","full-length SMN2 transcripts, mean expression level, Liver","full-length SMN2 transcripts, mean expression level, Gastroc","full-length SMN2 transcripts, mean expression level, Quad","full-length SMN2 transcripts, mean expression level, TA","full-length SMN2 transcripts, mean expression level, Cervical","full-length SMN2 transcripts, mean expression level, Lumbar","full-length SMN2 transcripts, mean expression level, Thoracic",cell penetration in several compartments of the central nervous system and the skeletal muscle compared with currently available peptides 1-7 (Table 3 data),"increase in cell penetration / exon inclusion compared with the currently available peptide conjugated to the same antisense oligonucleotide (in vivo, Table 3 data, peptide 17 versus peptide 6, peptide 14 versus peptide 2)"
Ac-RXRRBRFQILYRBRXR-B [Peptide 7],1.11,0.97,1.01,3.19,2.92****,2.80****,3.34****,1.26,0.97,1.33,–,–
Ac-RXRRBRRFLRBRXR-B [Peptide 6],1.38**,1.05,1.13,2.78,3.22****,2.89***,–,0.88**,1.23*,1.37*,–,–
Ac-RXRRBRRFQILYRBRXR-B [Peptide 3],0.86,1.025,0.93,4.57,3.4,3.35****,3.95***,0.92,1.1,1,–,–
Ac-RXRRBRRQFLRBRXR-B [Peptide 5],1.22,1,1.11,2.73,2.49****,2.46****,2.80****,1.24*,1.25*,1.23,–,–
Ac-RXRRBRRXR S*FLRXRBRXR-BB [Peptide 14],1.97***,1.26,1.50*,3.45,2.82****,2.45***,3.24****,1.23**,2.23,2.38**,increased,up to 59.7%
Ac-RXRRBRRXRQFLRXRBRXR-B [Peptide 2],1.36***,1.15*,1.16*,2.91,2.98****,2.52****,3.45****,1.78**,1.48**,1.49*,–,–
